# Data taken from patent US4521418A, “Guanidinothiazolyl derivatives” (Smith Kline & French Laboratories Limited, priority 1979, dated 1985).
# Tested on: histamine H2 -receptors
# Experiment: inhibition of histamine-stimulated secretion of gastric acid from Heidenhain pouch dogs
# Assay type: in vivo
# Details: Heidenhain pouch dog, 0.25 micromol kg^-1 i.v.
# Description: Heidenhain pouch dogs are prepared by the following procedure. The abdomen of a male beagle (14-16 kg) is opened and the stomach is exteriorized. Blood vessels are ligated and cut at two places on the greater curvature to enable a piece of the fundus of the stomach to be cut away from the main stomach to form the pouch. The incision lines are sewn together to enable normal digestion. A stainless steel cannula is inserted into the pouch and the end not in the pouch is exteriorized through a stab wound in the abdominal wall to allow drainage of gastric juice under gravity. Finally, the abdomen is closed by a continuous suture. The dogs are ready for experimental use approximately three weeks after operation. The compounds of the invention are tested in Heidenhain pouch dogs by the following procedure. The dogs are starved for approximately 20 hours prior to the experiment and are then placed in Pavlov stands. A polythene cannula is placed in a leg vein and saline is infused for about one hour. A check is made that there is no basal acid secretion. Histamine (20 micromoles/hour) or pentagastrin (8 micrograms/kg/hour) is continuously infused in place of the saline. A plateau of acid secretion is reached after 11/2 to 2 hours and the test compound is administered intravenously or orally (contained within a hard gelatin capsule). Gastric juice is collected by drainage under gravity into perspex tubes attached to the gastric cannula. Normally samples are collected over fifteen minute periods. The volumes of the samples are measured and aliquots are titrated to pH 7.4 with 0.1N sodium hydroxide. Acid secretion is expressed as the product of the volume and acid concentration.
Compound,duration of action,mean peak inhibition of histamine-stimulated gastric acid secretion
"N=C(N)Nc1nc(CSCCNc2ncc(Cc3cccnc3)c(=O)[nH]2)cs1 [Example 1, 2-[2-(2-guanidino-4-thiazolylmethylthio)ethylamino]-5-(3-pyridylmethyl)-4-pyrimidone]",extended duration of action,over 50%
"Cc1ccc(Cc2cnc(NCCSCc3csc(NC(=N)N)n3)[nH]c2=O)cn1 [Example 3, 2-[2-(2-guanidino-4-thiazolylmethylthio)ethylamino]-5-(6-methyl-3-pyridylmethyl)-4-pyrimidone]",extended duration of action,over 50%
